Source: ChEMBL document CHEMBL1914447, “Novel orally active antimalarial thiazoles” (J Med Chem, 2011)
≈ marks a conversion by molar mass, not a printed value.

Tests used:
Liver microsomes [1] = assay: Metabolic stability in human liver microsomes at 1 uM by LC-MS analysis; type: ADME, Microsome
Liver microsomes [2] = assay: Metabolic stability in rat liver microsomes at 1 uM by LC-MS analysis; type: ADME, Microsome
Liver = assay: Metabolic stability in mouse liver microsomes at 1 uM by LC-MS analysis; type: ADME, Microsome
[3] = Lipophilicity, log D of the compound by gradient HPLC at pH 3.0; type: physicochemical; details: buffer
[4] = Lipophilicity, log D of the compound by gradient HPLC at pH 7.4; type: physicochemical; details: buffer
[5] = Kinetic solubility of the compound by nephelometry at pH 2.0; type: physicochemical; details: buffer, read-out: Kinetic_solubility
[6] = Kinetic solubility of the compound by nephelometry at pH 6.5; type: physicochemical; details: buffer, read-out: Kinetic_solubility
Plasmodium falciparum [7] = assay: microbe, parasite or virus in culture; details: K1
Plasmodium falciparum [8] = assay: microbe, parasite or virus in culture; details: NF54
Plasmodium berghei [9] = assay: Antimalarial activity against GFP-transfected Plasmodium berghei ANKA infected in NMRI mouse assessed as mean survival time at 30 mg/kg, po administered as single dose; type: functional
Plasmodium berghei [10] = assay: Antimalarial activity against GFP-transfected Plasmodium berghei ANKA infected in NMRI mouse assessed as mean survival time at 10 mg/kg, po administered as single dose; type: functional
Plasmodium berghei [11] = assay: Antimalarial activity against GFP-transfected Plasmodium berghei ANKA infected in NMRI mouse assessed as mean survival time at 50 mg/kg, po administered as quadruple dose regimen; type: functional
[12] = Apparent half life in Sprague-Dawley rat at 4.5 […], iv; type: ADME, organism-based; details: in vivo, read-out: t1/2(app) (converted)
[13] = Total clearance in Sprague-Dawley rat plasma at 4.5 mg/kg, iv; type: ADME, organism-based; parameters: dose 4.5 mg/kg, route intravenous
[14] = Total clearance in Sprague-Dawley rat blood at 4.5 mg/kg, iv; type: ADME, organism-based; parameters: dose 4.5 mg/kg, route intravenous; details: whole blood
[15] = Ratio of drug level in blood to plasma of Sprague-Dawley rat at 4.5 mg/kg, iv; type: ADME, organism-based; parameters: dose 4.5 mg/kg, route intravenous; details: whole blood and plasma
[16] = Volume of distribution at steady state in Sprague-Dawley rat at 4.5 mg/kg, iv; type: ADME, organism-based; parameters: dose 4.5 mg/kg, route intravenous; details: in vivo, read-out: Vdss
[17] = AUC (0 to infinity) in Sprague-Dawley rat plasma at 4.5 mg/kg, iv by LCMS analysis; type: ADME, organism-based; parameters: time infinity, dose 4.5 mg/kg, route intravenous
[18] = Apparent half life in Sprague-Dawley rat at 21.8 […], po; type: ADME, organism-based; details: in vivo, read-out: t1/2(app) (converted)
[19] = Cmax in Sprague-Dawley rat plasma at 21.8 mg/kg, po by LCMS analysis; type: ADME, organism-based; parameters: dose 21.8 mg/kg, route oral
[20] = Tmax in Sprague-Dawley rat at 21.8 mg/kg, po by LCMS analysis; type: ADME, organism-based; parameters: dose 21.8 mg/kg, route oral; details: in vivo
[21] = AUC (0 to infinity) in Sprague-Dawley rat plasma at 21.8 mg/kg, po by LCMS analysis; type: ADME, organism-based; parameters: time infinity, dose 21.8 mg/kg, route oral
[22] = Oral bioavailability in Sprague-Dawley rat at 21.8 mg/kg; type: ADME, organism-based; details: in vivo
[23] = Plasma protein binding in human at 200 ng/mL; type: ADME, cell-free; details: read-out: PPB (converted)
[24] = Plasma protein binding in rat at 200 ng/mL; type: ADME, cell-free; details: read-out: PPB (converted)
[25] = Plasma protein binding in mouse at 200 ng/mL; type: ADME, cell-free; details: read-out: PPB (converted)
Plasmodium berghei [26] = assay: Antimalarial activity against GFP-transfected Plasmodium berghei ANKA infected in po dosed NMRI mouse assessed as reduction in parasitemia administered as single dose after 72 hrs by flow cytometry; type: functional
Plasmodium berghei [27] = assay: Antimalarial activity against GFP-transfected Plasmodium berghei ANKA infected in NMRI mouse assessed as mean survival time at 100 mg/kg, po administered as single dose; type: functional
Plasmodium berghei [28] = assay: Antimalarial activity against GFP-transfected Plasmodium berghei ANKA infected in NMRI mouse assessed as mean survival time at 200 mg/kg, po administered as single dose after 72 hrs; type: functional
Plasmodium berghei [29] = assay: Antimalarial activity against GFP-transfected Plasmodium berghei ANKA infected in NMRI mouse assessed as reduction in parasitemia at 50 mg/kg, po administered as quadruple dose regimen after 4 days by flow cytometry; type: functional; parameters: scale not given: the % may be the effect or the level left
Plasmodium berghei [30] = assay: Antimalarial activity against GFP-transfected Plasmodium berghei ANKA infected in NMRI mouse assessed as reduction in parasitemia at 10 mg/kg, po administered as single dose after 72 hrs by flow cytometry; type: functional; parameters: scale not given: the % may be the effect or the level left
Plasmodium berghei [31] = assay: Antimalarial activity against GFP-transfected Plasmodium berghei ANKA infected in NMRI mouse assessed as reduction in parasitemia at 30 mg/kg, po administered as single dose after 72 hrs by flow cytometry; type: functional; parameters: scale not given: the % may be the effect or the level left
Plasmodium berghei [32] = assay: Antimalarial activity against GFP-transfected Plasmodium berghei ANKA infected in NMRI mouse assessed as reduction in parasitemia at 100 mg/kg, po administered as single dose after 72 hrs by flow cytometry; type: functional; parameters: scale not given: the % may be the effect or the level left
L6 = assay: Cytotoxicity against rat L6 cells assessed after 72 hrs by alamar blue staining; type: cell-based; details: L6, 72 h
Plasmodium berghei [33] = assay: Antimalarial activity against GFP-transfected Plasmodium berghei ANKA infected in NMRI mouse assessed as reduction in parasitemia at 200 mg/kg, po administered as single dose after 72 hrs by flow cytometry; type: functional; parameters: scale not given: the % may be the effect or the level left
[34] = molecular target: Voltage-gated inwardly rectifying potassium channel KCNH2 (Homo sapiens, UniProt Q12809); assay: Inhibition of human ERG expressed in Chinese hamster CHL cells by perforated patch clamp assay; type: cell-based
CYP3A4/5 [35] = molecular target: T1, CYP3A4/5 (Homo sapiens, UniProt P08684+P20815); assay: Inhibition of CYP3A4/5-mediated testosterone 6beta-hydroxylation in human liver microsomes by LCMS analysis; type: ADME, Microsome; details: probe testosterone (6beta-hydroxylation)
CYP3A4/5 [36] = molecular target: T1, CYP3A4/5; assay: Inhibition of CYP3A4/5-mediated midazolam 1'-hydroxylation in human liver microsomes by LCMS analysis; type: ADME, Microsome; details: probe midazolam (1'-hydroxylation)
Cytochrome P450 2D6 = Cytochrome P450 2D6 (Homo sapiens, UniProt P10635); assay: Inhibition of CYP2D6-mediated dextromethorphan O-demethylation in human liver microsomes by LCMS analysis; type: ADME, Microsome
Cytochrome P450 2C19 = Cytochrome P450 2C19 (Homo sapiens, UniProt P33261); assay: Inhibition of CYP2C19-mediated (S)-mephenytoin 4'-hydroxylation in human liver microsomes by LCMS analysis; type: ADME, Microsome
Cytochrome P450 2C9 = Cytochrome P450 2C9 (Homo sapiens, UniProt P11712); assay: Inhibition of CYP2C9-mediated Tolbutamide methlyhydroxylation in human liver microsomes by LCMS analysis; type: ADME, Microsome
Cytochrome P450 1A2 = molecular target: T2, Cytochrome P450 1A2 (Homo sapiens, UniProt P05177); assay: Inhibition of CYP1A2-mediated phencetin o-de-ethylation in human liver microsomes by LCMS analysis; type: ADME, Microsome
T2 sequence (P05177 whole entry): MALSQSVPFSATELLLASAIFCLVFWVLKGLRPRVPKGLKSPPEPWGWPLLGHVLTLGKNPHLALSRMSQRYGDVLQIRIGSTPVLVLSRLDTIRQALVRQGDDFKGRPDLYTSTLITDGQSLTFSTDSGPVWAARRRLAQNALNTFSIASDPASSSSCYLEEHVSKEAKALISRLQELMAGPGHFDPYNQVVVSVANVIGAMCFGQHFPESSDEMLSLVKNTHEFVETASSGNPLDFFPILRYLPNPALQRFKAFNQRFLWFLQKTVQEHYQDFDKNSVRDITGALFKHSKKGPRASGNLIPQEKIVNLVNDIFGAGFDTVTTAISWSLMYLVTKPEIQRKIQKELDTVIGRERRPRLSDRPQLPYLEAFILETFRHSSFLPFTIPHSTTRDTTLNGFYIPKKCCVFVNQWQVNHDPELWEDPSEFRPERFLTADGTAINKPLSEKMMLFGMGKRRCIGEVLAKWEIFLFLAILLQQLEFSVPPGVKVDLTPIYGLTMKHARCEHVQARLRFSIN

[37] = Equilibrium solubility of the compound by nephelometry at pH 2.0; type: physicochemical; details: buffer
[38] = Equilibrium solubility of the compound by nephelometry at pH 6.5; type: physicochemical; details: buffer

Sequence of Cytochrome P450 2D6 (P10635 whole entry): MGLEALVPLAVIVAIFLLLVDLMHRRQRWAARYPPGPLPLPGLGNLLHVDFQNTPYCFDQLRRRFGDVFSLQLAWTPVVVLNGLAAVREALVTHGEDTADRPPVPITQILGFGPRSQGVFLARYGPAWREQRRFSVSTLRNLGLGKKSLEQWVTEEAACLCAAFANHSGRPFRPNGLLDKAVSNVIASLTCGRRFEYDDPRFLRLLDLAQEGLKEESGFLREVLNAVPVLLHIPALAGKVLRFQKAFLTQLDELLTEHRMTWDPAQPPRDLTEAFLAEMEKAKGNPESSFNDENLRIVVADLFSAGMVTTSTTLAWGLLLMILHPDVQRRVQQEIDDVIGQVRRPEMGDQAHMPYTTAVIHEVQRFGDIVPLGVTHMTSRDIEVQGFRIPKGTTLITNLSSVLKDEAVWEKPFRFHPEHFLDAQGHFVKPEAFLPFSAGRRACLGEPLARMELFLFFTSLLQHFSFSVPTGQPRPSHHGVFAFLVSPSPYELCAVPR
Sequence of Voltage-gated inwardly rectifying potassium channel KCNH2 (Q12809 whole entry): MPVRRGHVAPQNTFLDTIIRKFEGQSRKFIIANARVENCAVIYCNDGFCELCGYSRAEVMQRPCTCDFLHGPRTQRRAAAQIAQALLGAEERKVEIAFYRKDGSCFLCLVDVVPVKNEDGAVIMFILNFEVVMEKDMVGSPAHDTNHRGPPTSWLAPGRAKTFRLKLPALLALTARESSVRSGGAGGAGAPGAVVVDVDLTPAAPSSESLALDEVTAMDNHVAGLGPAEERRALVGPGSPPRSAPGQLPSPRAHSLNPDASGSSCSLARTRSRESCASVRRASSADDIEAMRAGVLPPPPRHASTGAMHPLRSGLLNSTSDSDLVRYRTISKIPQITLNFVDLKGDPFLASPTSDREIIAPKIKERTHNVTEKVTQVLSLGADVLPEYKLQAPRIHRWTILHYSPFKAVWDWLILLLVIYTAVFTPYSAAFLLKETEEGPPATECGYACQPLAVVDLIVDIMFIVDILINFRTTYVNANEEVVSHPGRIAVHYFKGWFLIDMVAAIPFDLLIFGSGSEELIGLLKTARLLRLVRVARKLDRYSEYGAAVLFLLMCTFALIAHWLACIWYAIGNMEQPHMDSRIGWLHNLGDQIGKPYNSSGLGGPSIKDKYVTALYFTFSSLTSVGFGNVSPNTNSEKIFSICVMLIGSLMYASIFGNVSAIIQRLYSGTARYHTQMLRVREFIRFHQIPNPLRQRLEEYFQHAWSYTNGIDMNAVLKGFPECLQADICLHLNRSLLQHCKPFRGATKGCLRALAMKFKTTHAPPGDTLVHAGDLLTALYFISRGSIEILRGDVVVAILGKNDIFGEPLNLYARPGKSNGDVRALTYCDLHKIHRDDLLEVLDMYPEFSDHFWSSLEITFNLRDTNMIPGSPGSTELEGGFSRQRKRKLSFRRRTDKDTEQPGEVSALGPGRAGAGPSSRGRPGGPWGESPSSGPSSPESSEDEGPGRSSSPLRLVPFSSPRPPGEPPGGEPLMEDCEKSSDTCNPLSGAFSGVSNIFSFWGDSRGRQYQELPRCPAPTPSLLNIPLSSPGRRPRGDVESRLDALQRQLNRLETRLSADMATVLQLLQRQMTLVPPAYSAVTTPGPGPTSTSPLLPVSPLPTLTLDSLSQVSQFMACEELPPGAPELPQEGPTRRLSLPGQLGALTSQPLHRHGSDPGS
Sequence of Cytochrome P450 2C9 (P11712 whole entry): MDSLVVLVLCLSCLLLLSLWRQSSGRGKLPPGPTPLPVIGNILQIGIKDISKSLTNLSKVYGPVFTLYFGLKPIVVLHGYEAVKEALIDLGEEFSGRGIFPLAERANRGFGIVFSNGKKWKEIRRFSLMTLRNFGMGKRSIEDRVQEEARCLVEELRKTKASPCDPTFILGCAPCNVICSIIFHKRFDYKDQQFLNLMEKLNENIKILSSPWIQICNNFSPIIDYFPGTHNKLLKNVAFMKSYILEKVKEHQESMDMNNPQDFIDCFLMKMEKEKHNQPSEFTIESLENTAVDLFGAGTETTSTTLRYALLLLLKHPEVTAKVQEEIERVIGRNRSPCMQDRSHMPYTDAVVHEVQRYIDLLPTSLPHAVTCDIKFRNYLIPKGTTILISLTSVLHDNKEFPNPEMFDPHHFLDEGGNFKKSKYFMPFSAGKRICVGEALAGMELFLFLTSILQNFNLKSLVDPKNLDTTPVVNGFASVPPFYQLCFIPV
Sequence of Cytochrome P450 2C19 (P33261 whole entry): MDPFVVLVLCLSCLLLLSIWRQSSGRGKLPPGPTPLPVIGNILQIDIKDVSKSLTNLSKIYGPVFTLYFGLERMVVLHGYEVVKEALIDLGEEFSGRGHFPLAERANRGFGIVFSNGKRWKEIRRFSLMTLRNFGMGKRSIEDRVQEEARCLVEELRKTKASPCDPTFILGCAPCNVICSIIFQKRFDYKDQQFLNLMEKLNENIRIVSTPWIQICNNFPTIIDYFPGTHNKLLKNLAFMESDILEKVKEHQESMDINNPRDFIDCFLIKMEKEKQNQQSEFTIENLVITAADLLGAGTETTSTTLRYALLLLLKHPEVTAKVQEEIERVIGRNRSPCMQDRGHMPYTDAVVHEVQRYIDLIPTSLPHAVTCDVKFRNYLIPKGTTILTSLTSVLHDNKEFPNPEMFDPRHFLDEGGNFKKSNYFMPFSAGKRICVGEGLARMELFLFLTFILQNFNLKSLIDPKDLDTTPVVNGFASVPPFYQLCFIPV

CC(C)(C)c1cc(C(=O)Nc2nc(CNS(C)(=O)=O)cs2)n(Cc2ccccc2)n1
Stability (Liver microsomes [1]): Unstable
Stability (Liver microsomes [2]): Unstable
Stability (Liver): Unstable
chromatographic logD [3]: 3.7
chromatographic logD [4]: 3.7
solubility kinetic [5]: 3.1 µg/mL (≈ 6.93 µM)
solubility kinetic [6]: 3.1 µg/mL (≈ 6.93 µM)
IC50 (Plasmodium falciparum [7]): 2930 nM
IC50 (Plasmodium falciparum [8]): 4.68 µM

CC(=O)NCc1csc(NC(=O)c2cc(C(C)(C)C)nn2Cc2ccccc2)n1
Stability (Liver microsomes [1]): Unstable
Stability (Liver microsomes [2]): Unstable
Stability (Liver): Unstable
chromatographic logD [3]: 3.3
chromatographic logD [4]: 3.3
solubility kinetic [5]: 12.5 µg/mL (≈ 30.4 µM)
solubility kinetic [6]: 12.5 µg/mL (≈ 30.4 µM)
IC50 (Plasmodium falciparum [7]): 4270 nM
IC50 (Plasmodium falciparum [8]): 6.24 µM

CNCc1csc(NC(=O)c2cc(C(C)(C)C)nn2Cc2ccccc2)n1
Stability (Liver microsomes [1]): Stable
Stability (Liver microsomes [2]): Stable
Stability (Liver): Stable
chromatographic logD [3]: 2.6
chromatographic logD [4]: 3.8
solubility kinetic [5]: 25 µg/mL (≈ 65.2 µM)
solubility kinetic [6]: 12.5 µg/mL (≈ 32.6 µM)
IC50 (Plasmodium falciparum [7]): 190 nM
IC50 (Plasmodium falciparum [8]): 0.16 µM

CC(C)(C)c1cc(C(=O)Nc2nc(CN)cs2)n(Cc2ccccc2)n1
MSD (Plasmodium berghei [9]): 6 days
MSD (Plasmodium berghei [10]): 3 days
MSD (Plasmodium berghei [11]): 9 days
half-life [12]: 222 min
clearance [13]: 42.6 mL/min/kg
clearance [14]: 39.1 mL/min/kg
blood plasma ratio [15]: 1.1
Vd [16]: 10.1 L/kg
AUC(0-inf) [17]: 4.82 µM·h
half-life [18]: 186 min
Cmax [19]: 1600 nM
Tmax [20]: 3.25 h
AUC(0-inf) [21]: 11.8 µM·h
bioavailability [22]: 50.4%
fraction unbound at 200 ng/mL [23]: 0.06
fraction unbound at 200 ng/mL [24]: 0.029
fraction unbound at 200 ng/mL [25]: 0.021
Stability (Liver microsomes [1]): Stable
Stability (Liver microsomes [2]): Stable
Stability (Liver): Stable
ED50 (Plasmodium berghei [26]): 37 mg/kg
ED90 (Plasmodium berghei [26]): 86 mg/kg
MSD (Plasmodium berghei [27]): 6 days
MSD (Plasmodium berghei [28]): 8 days
Activity (Plasmodium berghei [29]): 99.5%
Activity (Plasmodium berghei [30]): <40%
Activity (Plasmodium berghei [31]): <40%
Activity (Plasmodium berghei [32]): 94%
IC50 (L6): 4.9 µM
Activity (Plasmodium berghei [33]): 99.4%
IC50 [34]: 3.7 µM
IC50 (CYP3A4/5 [35]): > 30 µM
IC50 (CYP3A4/5 [36]): > 30 µM
IC50 (Cytochrome P450 2D6): 400 nM
IC50 (Cytochrome P450 2C19): 15 µM
IC50 (Cytochrome P450 2C9): 10 µM
IC50 (Cytochrome P450 1A2): 1500 nM
chromatographic logD [3]: 2.4
chromatographic logD [4]: 3.5
solubility [37]: 4930 µg/mL (≈ 13300 µM)
solubility [38]: 142 µg/mL (≈ 385 µM)
IC50 (Plasmodium falciparum [7]): 80 nM
IC50 (Plasmodium falciparum [8]): 0.07 µM

CC(C)(C)c1cc(C(=O)Nc2ccccn2)n(Cc2ccccc2)n1
Stability (Liver microsomes [1]): Unstable
Stability (Liver microsomes [2]): Unstable
Stability (Liver): Unstable
chromatographic logD [3]: 4.5
chromatographic logD [4]: 4.5
solubility kinetic [5]: 25 µg/mL (≈ 74.8 µM)
solubility kinetic [6]: 6.3 µg/mL (≈ 18.8 µM)
IC50 (Plasmodium falciparum [7]): 10200 nM
IC50 (Plasmodium falciparum [8]): 10.5 µM

Cc1csc(NC(=O)c2cc(C(C)(C)C)nn2Cc2ccccc2)n1
Stability (Liver microsomes [1]): Unstable
Stability (Liver microsomes [2]): Unstable
Stability (Liver): Unstable
chromatographic logD [3]: 4.7
chromatographic logD [4]: 4.7
solubility kinetic [5]: < 1.6 µg/mL
solubility kinetic [6]: < 1.6 µg/mL
IC50 (Plasmodium falciparum [7]): 4940 nM
IC50 (Plasmodium falciparum [8]): 4.12 µM

CCN(CC)CCCC(C)Nc1ccnc2cc(Cl)ccc12 (stereo not given) [CHLOROQUINE]
MSD (Plasmodium berghei [9]): 9 days
MSD (Plasmodium berghei [10]): 7 days
ED50 (Plasmodium berghei [26]): 1.9 mg/kg
ED90 (Plasmodium berghei [26]): 4.2 mg/kg
MSD (Plasmodium berghei [27]): 12 days
Activity (Plasmodium berghei [30]): 99.5%
Activity (Plasmodium berghei [31]): 99.7%
Activity (Plasmodium berghei [32]): >99.9%

CN(C)Cc1csc(NC(=O)c2cc(C(C)(C)C)nn2Cc2ccccc2)n1
Stability (Liver microsomes [1]): Unstable
Stability (Liver microsomes [2]): Unstable
Stability (Liver): Unstable
chromatographic logD [3]: 2.6
chromatographic logD [4]: 4.2
solubility kinetic [5]: > 100 µg/mL
solubility kinetic [6]: 25 µg/mL (≈ 62.9 µM)
IC50 (Plasmodium falciparum [7]): 1480 nM
IC50 (Plasmodium falciparum [8]): 2.41 µM
